Experimental data as given in PubChem BioAssay AID743031 (The Scripps Research Institute Molecular Screening Center, 2013).

Experiments:
[1] = tested on: Mouse Brain; test: brain and plasma exposure of V1a-R antagonist lead, late-stage follow-up, in vivo study for V1a-R antagonist project, LC-MS/MS, mouse, powder samples (AID 743031); settings: C57Bl6 mouse, 10 mg/kg PO, LC-MS/MS at 60 min, 60 min after 10 mg/kg PO
[2] = tested on: Mouse Plasma; test: as above; settings: C57Bl6 mouse, 10 mg/kg PO, LC-MS/MS at 60 min, 60 min after 10 mg/kg PO
[3] = brain to plasma ratio, stronger effect = higher value

## O=C(C1CCN(c2ccc(Cl)cn2)CC1)N(CC1CC1)c1ccc(Cl)cc1
[1]
  compound concentration: 3.27 µM
[1]; [3]
  brain/plasma ratio: 1.28
[2]
  compound concentration: 2.56 µM
[2]; [3]
  brain/plasma ratio: 1.28
